Source: the supplement of paper PMC10307832

Experiments:
Test in all cases: relative viability (nuclei count vs DMSO), 5 days (fraction); higher = more cells survive
[1] = compound: CN(c1ncccc1CNc1nc(Nc2ccc3c(c2)CC(=O)N3)ncc1C(F)(F)F)S(C)(=O)=O + Cc1cc(Nc2cc(N3CCN(C)CC3)nc(Sc3ccc(NC(=O)C4CC4)cc3)n2)n[nH]1 [Tozasertib] (partner 0.1 µM)
Outline: (§1)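 Lung cancer cell lines in 1536-well plates got either a single drug or a fixed anchor-drug dose together with five library-drug doses (not always all listed) in √10 steps, by pin tool, on the day after seeding. Nuclei were counted after 5 days, and relative viability is the treated-to-vehicle ratio of nuclei counts. Values are medians of duplicate plates.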

[2] = compound: CN(c1ncccc1CNc1nc(Nc2ccc3c(c2)CC(=O)N3)ncc1C(F)(F)F)S(C)(=O)=O + CC(C)C[C@H](NC(=O)[C@H](Cc1ccccc1)NC(=O)c1cnccn1)B(O)O [Bortezomib] (partner 0.002 µM)
Outline: as §1

[3] = compound: CN(c1ncccc1CNc1nc(Nc2ccc3c(c2)CC(=O)N3)ncc1C(F)(F)F)S(C)(=O)=O + Nc1ncn([C@H]2C[C@H](O)[C@@H](CO)O2)c(=O)n1 [Decitabine] (partner 2 µM)
Outline: as §1

[4] = compound: CN(c1ncccc1CNc1nc(Nc2ccc3c(c2)CC(=O)N3)ncc1C(F)(F)F)S(C)(=O)=O + NC(=O)Nc1cc(-c2cccc(F)c2)sc1C(=O)N[C@H]1CCCNC1 [AZD7762] (partner 0.2 µM)
Outline: as §1

| Cell Line | relative viability ([1]; first compound 0.01 µM) | relative viability ([1]; first compound 0.03162 µM) | relative viability ([1]; first compound 0.1 µM) | relative viability ([1]; first compound 0.3162 µM) | relative viability ([1]; first compound 1 µM) | relative viability ([2]; first compound 0.01 µM) | relative viability ([2]; first compound 0.03162 µM) | relative viability ([2]; first compound 0.1 µM) | relative viability ([2]; first compound 0.3162 µM) | relative viability ([2]; first compound 1 µM) | relative viability ([3]; first compound 0.01 µM) | relative viability ([3]; first compound 0.03162 µM) | relative viability ([3]; first compound 0.1 µM) | relative viability ([3]; first compound 0.3162 µM) | relative viability ([3]; first compound 1 µM) | relative viability ([4]; first compound 0.01 µM) | relative viability ([4]; first compound 0.03162 µM) | relative viability ([4]; first compound 0.1 µM) | relative viability ([4]; first compound 0.3162 µM) | relative viability ([4]; first compound 1 µM) |
| --- | --- | --- | --- | --- | --- | --- | --- | --- | --- | --- | --- | --- | --- | --- | --- | --- | --- | --- | --- | --- |
| NCI-H661 | 0.294 | 0.334 | 0.361 | 0.372 | 0.353 | 0.928 | 1.06 | 0.717 | 0.837 | 1.04 | 0.551 | 0.649 | 0.589 | 0.56 | 0.568 |  |  |  |  |  |
| HCC-366 | 0.129 | 0.143 | 0.126 | 0.0925 | 0.0651 | 0.927 | 1.24 | 1.09 | 1.02 | 1.06 | 0.332 | 0.369 | 0.327 | 0.354 | 0.307 | 0.378 | 0.329 | 0.319 | 0.288 | 0.34 |
| NCI-H1944 | 0.238 | 0.279 | 0.247 | 0.261 | 0.243 |  |  |  |  |  | 0.448 | 0.474 | 0.467 | 0.432 | 0.445 | 0.723 | 0.571 | 0.602 | 0.672 | 0.658 |
| SW 1573 | 0.166 | 0.198 | 0.188 | 0.201 | 0.16 | 1.17 | 0.898 | 0.977 | 1.05 | 1.11 | 0.583 | 0.492 | 0.469 | 0.657 | 0.68 |  |  |  |  |  |
| COR-L 105 | 0.365 | 0.322 | 0.341 | 0.399 | 0.247 | 0.889 | 0.733 | 0.835 | 0.814 | 0.595 | 0.762 | 0.68 | 0.728 | 0.733 | 0.697 |  |  |  |  |  |
| EBC-1 |  |  |  |  |  | 0.596 | 0.5 | 0.56 | 0.585 | 0.499 |  |  |  |  |  |  |  |  |  |  |
| SK-LU-1 | 0.339 | 0.308 | 0.307 | 0.294 | 0.262 | 1.33 | 1.28 | 0.839 | 1.24 | 1.12 | 0.641 | 0.689 | 0.636 | 0.639 | 0.576 |  |  |  |  |  |
| SW 900 | 0.547 | 0.629 | 0.543 | 0.495 | 0.446 |  |  |  |  |  | 0.437 | 0.466 | 0.425 | 0.449 | 0.454 | 0.579 | 0.688 | 0.784 | 0.594 | 0.733 |
| NCI-H522 | 0.542 | 0.447 | 0.469 | 0.511 | 0.61 |  |  |  |  |  | 0.553 | 0.685 | 0.649 | 0.644 | 0.637 | 0.798 | 0.979 | 0.737 | 0.87 | 0.764 |
| NCI-H520 | 0.485 | 0.474 | 0.467 | 0.546 | 0.429 | 0.695 | 0.513 | 0.489 | 1.13 | 0.635 | 0.549 | 0.655 | 0.484 | 0.49 | 0.549 |  |  |  |  |  |
| UMC-11 | 0.198 | 0.184 | 0.187 | 0.181 | 0.206 | 0.795 | 0.634 | 0.649 | 0.589 | 0.672 | 0.568 | 0.681 | 0.626 | 0.838 | 0.628 |  |  |  |  |  |
